This test concerns HUVEC. Briefly: MTT viability of Doxorubicin-induced senescent and non-senescent HUVEC. The format is cell-based, Human. To be noted: for EC50: Homo sapiens. An excerpt:
IMR90 and WI38 lung fibroblasts were purchased from ECACC‐Merck. Human bone marrow (BM)‐derived mesenchymal stromal cells (MSCs) were purchased from Lonza. Human umbilical vein endothelial cells (HUVECs) are primary cells obtained from a pool of donors purchased from Clonetics (Lonza). Murine ear fibroblasts (MearFs) were obtained from C57BL/6J mice maintained in the INRCA “Specific Pathogen Free” (SPF) animal facility. MCF7 breast cancer cells were purchased from ATCC. For dose–response curves, IMR90 and WI38 were induced to senescence through replicative passages; MSCs, HUVECs, and MearFs senescence was induced with Doxorubicin; MCF7 senescence was induced with 4‐Hydroxytamoxifen (Lee et al. [2014]). The EC50 was calculated using GraphPad Prism 10 software. All treatment specifications are reported in the extended section.
Cell viability was determined using an MTT assay. Absorbance was measured using a NB‐12‐0035 Microplate Reader (NeoBiotech Co.). Data are expressed as a percentage of viability compared with untreated cells.
Human umbilical vein endothelial cells (HUVECs) are primary cells obtained from a pool of donors purchased from Clonetics (Lonza, Stein, Switzerland). HUVECs were cultured in endothelial basal medium (EBM-2, CC-3156, Lonza) supplemented with SingleQuot Bullet Kit (CC-4176, Lonza) containing 0.1% human recombinant epidermal growth factor (rh-EGF), 0.04% hydrocortisone, 0.1% vascular endothelial growth factor (VEGF), 0.4% human recombinant fibroblast growth factor (rh-FGF-B), 0.1% insulin-like growth factor-1 with the substitution of arginine for glutamic acid at position 3 (R3-IGF-1), 0.1% ascorbic acid, 0.1% heparin, 0.1% gentamicin and amphotericin-B (GA-1000), and 2% fetal bovine serum (FBS). The cells were seeded at a density of 5000/cm^2 in T75 flasks (Corning Costar, Sigma Aldrich, St. Louis, MO, USA).
Murine ear fibroblasts (MearFs) were obtained from C57BL/6J mice maintained in the INRCA "Specific Pathogen Free" (SPF) animal facility. The ear biopsies (2 mm radius) were obtained with a dedicated puncher, and cells recovered as previously described (Malavolta et al. 2022). Cells were seeded at a density of 5000/cm^2 in T75 flasks (Corning Costar, Sigma Aldrich, St. Louis, MO, USA) and maintained at 37°C in a 95% humidified incubator with 5% CO2. […]
Cell viability assay. Cell viability has been determined with MTT (3-(4,5-dimethylthiazol-2-yl)-2, 5-diphenyltetrazolium bromide) assay. […] Insoluble formazan salts produced were solubilized with DMSO incubation, and then absorbance was measured at 540 nm using a microplate reader (NB-12-0035 Microplate Reader, NeoBiotech Co., Seoul, Republic of Korea). Data are expressed as a percentage of viability compared with untreated cells (the control group has been considered 100% of viability).

Structures are written as SMILES. Read-outs that look alike come from different tables or passages of the source. A value given as a limit tells only on which side of the number the result lay.

Broadly, the EC50 is the midpoint of the concentration-response curve. On to `Cc1ccccc1-n1c(=O)n(Cc2ccccc2)c(=O)c2[nH]cnc21` [Compound K5, 1-benzyl-3-(2-methylphenyl)-7H-purine-2,6-dione], for which the “Senolytic evidence (no, partly/yes)” value (DNA damage (Doxorubicin)) is reported as “No”. Also, the concentration for a half-maximal effect (EC50) (DNA damage (Doxorubicin), MTT, read-out: EC50 senescent cells) is more than 500 µM and the EC50 (MTT, read-out: EC50 proliferating cells) was more than 500 µM. The “difference in vitality, DOXO-induced senescent vs non-senescent proliferating cells” value (MTT) is “no discernible difference”.

The values above are taken from paper PMC12266748, “A Xanthine Derivative With Novel Heat Shock Protein 90‐Alpha Inhibitory and Senolytic Properties” (Aging Cell, 2025).
